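How tested: cells in 96-well plates exposed to compound for 48 hours at five concentrations. Definition used: TGI = concentration required for complete inhibition of growth.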
Experiments:
Assay in all cases: inhibition of tumour cell growth, NCI panel, 48 h
[1] = test system: T-47D breast
[2] = test system: TK-10 renal
[3] = test system: MOLT-4 leukemia
[4] = test system: UO-31 renal
[5] = test system: A498 renal
[6] = test system: SN12C renal
[7] = test system: LOX IMVI melanoma
[8] = test system: OVCAR-5 ovarian
[9] = test system: MDA-N
[10] = test system: SF-268 CNS
[11] = test system: OVCAR-4 ovarian
[12] = test system: ACHN renal
[13] = test system: HS 578T breast
[14] = test system: MDA-MB-231 breast
[15] = test system: CCRF-CEM leukemia
[16] = test system: IGROV1 ovarian
[17] = test system: HCT-116 colon
[18] = test system: SK-MEL-2 melanoma
[19] = test system: SW-620 colon
[20] = test system: MCF7 breast
[21] = test system: HCT-15 colon
[22] = test system: MALME-3M melanoma
[23] = test system: SR leukemia
[24] = test system: SK-MEL-5 melanoma
[25] = test system: NCI-H522 lung
[26] = test system: EKVX NSCLC
[27] = test system: UACC-257 melanoma
[28] = test system: A549 NSCLC
[29] = test system: M14 melanoma
[30] = test system: U251 CNS
[31] = test system: SK-MEL-28 melanoma
[32] = test system: NCI-H226 lung
[33] = test system: NCI/ADR-RES ovarian
[34] = test system: 786-0 renal
[35] = test system: HOP-92 NSCLC
[36] = test system: RXF 393 renal
[37] = test system: MDA-MB-435
[38] = test system: CAKI-1 renal
[39] = test system: NCI-H460 lung
[40] = test system: HCC-2998 colon
[41] = test system: RPMI-8226 leukemia
[42] = test system: KM12 colon
[43] = test system: K-562 leukemia
[44] = test system: SK-OV-3 ovarian
[45] = test system: SNB-75 CNS
[46] = test system: HOP-62 NSCLC
[47] = test system: OVCAR-8 ovarian
[48] = test system: SF-295 CNS
[49] = test system: DU-145 prostate
[50] = test system: OVCAR-3 ovarian
[51] = test system: SNB-19 CNS
[52] = test system: PC-3 prostate
[53] = test system: UACC-62 melanoma
[54] = test system: SF-539 CNS
[55] = test system: HT29 colon
[56] = test system: COLO 205 colon
[57] = test system: NCI-H23 lung
[58] = test system: HL-60(TB) leukemia

CCCCCNc1nonc1N
TGI [1]: > 100000 nM | TGI [2]: > 100000 nM | TGI [3]: > 100000 nM | TGI [4]: > 100000 nM | TGI [5]: > 100000 nM | TGI [6]: > 100000 nM | TGI [7]: > 100000 nM | TGI [8]: > 100000 nM | TGI [9]: > 100000 nM | TGI [10]: > 100000 nM | TGI [11]: > 100000 nM | TGI [12]: > 100000 nM | TGI [13]: > 100000 nM | TGI [14]: > 100000 nM | TGI [15]: > 31600 nM | TGI [16]: > 100000 nM | TGI [17]: > 100000 nM | TGI [18]: > 100000 nM | TGI [19]: > 100000 nM | TGI [20]: > 100000 nM | TGI [21]: > 100000 nM | TGI [22]: > 100000 nM | TGI [23]: > 100000 nM | TGI [24]: > 100000 nM | TGI [25]: > 100000 nM | TGI [26]: > 100000 nM | TGI [27]: > 100000 nM | TGI [28]: > 100000 nM | TGI [29]: > 100000 nM | TGI [30]: > 100000 nM | TGI [31]: > 100000 nM | TGI [32]: > 100000 nM | TGI [33]: > 100000 nM | TGI [34]: > 100000 nM | TGI [35]: > 100000 nM | TGI [36]: > 100000 nM | TGI [37]: > 100000 nM | TGI [38]: > 100000 nM | TGI [39]: > 100000 nM | TGI [40]: > 100000 nM | TGI [41]: > 100000 nM | TGI [42]: > 100000 nM | TGI [43]: > 100000 nM | TGI [44]: > 100000 nM | TGI [45]: > 100000 nM | TGI [46]: > 100000 nM | TGI [47]: > 100000 nM | TGI [48]: > 100000 nM | TGI [49]: > 100000 nM | TGI [50]: > 100000 nM | TGI [51]: > 100000 nM | TGI [52]: > 100000 nM | TGI [53]: > 100000 nM | TGI [54]: > 100000 nM | TGI [55]: > 100000 nM | TGI [56]: > 100000 nM | TGI [57]: > 100000 nM

COc1ccc2nc3cccc([N+](=O)[O-])c3c(NCCO)c2c1
TGI [1]: 805 nM | TGI [2]: 142 nM | TGI [4]: 50.4 nM | TGI [5]: 117 nM | TGI [6]: 79.2 nM | TGI [7]: 4.94 nM | TGI [8]: 69.8 nM | TGI [9]: 23.4 nM | TGI [10]: 111 nM | TGI [11]: 153 nM | TGI [12]: 50.4 nM | TGI [13]: 64.4 nM | TGI [14]: 41 nM | TGI [15]: 2680 nM | TGI [16]: 479 nM | TGI [17]: 5.45 nM | TGI [18]: 36.8 nM | TGI [19]: 8.62 nM | TGI [20]: 296 nM | TGI [21]: 48.1 nM | TGI [22]: 33.7 nM | TGI [24]: 61.4 nM | TGI [25]: 43 nM | TGI [26]: 64.8 nM | TGI [27]: 81.3 nM | TGI [28]: 90.9 nM | TGI [29]: 22.8 nM | TGI [30]: 122 nM | TGI [31]: 62.6 nM | TGI [32]: 176 nM | TGI [33]: 93.9 nM | TGI [34]: 64.9 nM | TGI [35]: 49.9 nM | TGI [36]: 27.4 nM | TGI [37]: 18.6 nM | TGI [38]: 70.6 nM | TGI [39]: 23.3 nM | TGI [40]: 39.5 nM | TGI [41]: 19 nM | TGI [42]: 149 nM | TGI [43]: 18.1 nM | TGI [44]: 752 nM | TGI [45]: 336 nM | TGI [46]: 66.8 nM | TGI [47]: 53.2 nM | TGI [48]: 1030 nM | TGI [49]: 61.9 nM | TGI [58]: 94.3 nM | TGI [50]: 41.9 nM | TGI [51]: 875 nM | TGI [52]: 98.2 nM | TGI [53]: 48.1 nM | TGI [54]: 52 nM | TGI [55]: 125 nM | TGI [56]: 14.6 nM | TGI [57]: 62.4 nM
